The source made the active and inactive calls.
What was measured:
HEK293 [1] = assay: inhibition of NOD1-driven NF-kB reporter – cell-based, luminescence, uHTS, primary screen (AID 1578); format: functional; conditions: Homo sapiens
HEK293 [2] = assay: cells; format: functional, cell-based; conditions: Homo sapiens
HEK293 [3] = assay: cells; format: functional, cell-based; conditions: Homo sapiens; remark: listed apart in the source
HEK293 [4] = assay: NOD2 signaling inhibitors in MDP-stimulated cells, cell-based, uHTS, luminescence (AID 2001); format: functional; conditions: Homo sapiens
Tumor necrosis factor = Tumor necrosis factor (Homo sapiens, UniProt P01375); assay: analog potency on TNFa NF-kB signaling – cell-based, revised, SAR follow-up (AID 2337); format: functional
Chain of Tumor necrosis factor (P01375 whole entry, the tested form may be a part): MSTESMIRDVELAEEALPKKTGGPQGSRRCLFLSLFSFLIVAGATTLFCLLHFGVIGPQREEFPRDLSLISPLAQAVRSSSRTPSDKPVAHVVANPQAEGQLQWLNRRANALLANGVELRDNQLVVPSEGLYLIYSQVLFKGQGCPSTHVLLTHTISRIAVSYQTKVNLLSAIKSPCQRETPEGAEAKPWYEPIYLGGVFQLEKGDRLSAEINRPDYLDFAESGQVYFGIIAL

[5] = target: Nucleotide-binding oligomerization domain-containing protein 1 (Homo sapiens, UniProt Q9Y239); assay: blockers of NOD1 pathway activity – revised, SAR follow-up (AID 2333); format: functional
[6] = target: Nucleotide-binding oligomerization domain-containing protein 2 (Homo sapiens, UniProt Q9HC29); assay: PubChem AID 2334; format: functional
HEK293 [7] = assay: cells; conditions: Homo sapiens
[8] = system: Streptococcus sp. 'group A'; assay: Streptococcus pyogenes SK(-)GAS viability under kanamycin – luminescence, BacTiterGlo, confirmation, counter-screen for streptokinase expression inhibitor project, dose response (AID 1900); format: functional, organism-based
Streptokinase A = target: T1, Streptokinase A (Streptococcus pyogenes serotype M1, UniProt P10520); assay: viability-normalized secreted streptokinase activity reduction – plasminogen activation absorbance, OD405, dose response (AID 1914); format: functional, Streptococcus pyogenes M1 GAS;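 also: secreted streptokinase activity via plasminogen activation per viability signal from cell pellet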
T1 sequence (P10520 whole entry): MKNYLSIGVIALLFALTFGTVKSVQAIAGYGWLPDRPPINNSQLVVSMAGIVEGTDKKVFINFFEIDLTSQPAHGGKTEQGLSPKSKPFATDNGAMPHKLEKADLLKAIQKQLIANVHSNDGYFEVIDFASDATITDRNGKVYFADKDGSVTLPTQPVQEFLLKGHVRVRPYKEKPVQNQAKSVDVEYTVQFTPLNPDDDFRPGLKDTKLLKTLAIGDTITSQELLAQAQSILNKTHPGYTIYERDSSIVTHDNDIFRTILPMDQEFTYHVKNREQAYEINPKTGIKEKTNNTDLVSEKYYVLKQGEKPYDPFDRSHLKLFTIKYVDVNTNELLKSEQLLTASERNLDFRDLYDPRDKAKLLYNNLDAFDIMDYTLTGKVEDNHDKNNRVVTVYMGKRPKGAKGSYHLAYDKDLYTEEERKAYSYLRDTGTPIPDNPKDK

Streptococcus [9] = assay: GAS UMAA2166 growth inhibition – luminescence, BacTiterGlo, counter-screen for streptokinase expression inhibitor project, dose response (AID 1915); format: functional, organism-based;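 also: potency for reduction of bacterial viability or growth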
[10] = target: Scavenger receptor class B member 1 (Mus musculus, UniProt Q61009); assay: mouse SR-BI DiI-HDL uptake blockers – ldlA[mSR-BI] cells, fluorescence, cherry pick, dose response (AID 493194); format: functional, cell-based;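 also: cellular uptake of fluorescent DiI-labeled HDL measured as cell fluorescence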
SUMO E1/E2 = SUMO E1/E2 (Homo sapiens, UniProt P63279+Q9UBE0+Q9UBT2); assay: SAR analysis of SUMOylation using HTRF in an in-Vitro dose response assay. [Related pubchem assays (depositor defined):AID2006, AID2011, AID2018, AID2069, AID2658]; format: functional
Chain of SUMO E1/E2 (Q9UBE0 whole entry): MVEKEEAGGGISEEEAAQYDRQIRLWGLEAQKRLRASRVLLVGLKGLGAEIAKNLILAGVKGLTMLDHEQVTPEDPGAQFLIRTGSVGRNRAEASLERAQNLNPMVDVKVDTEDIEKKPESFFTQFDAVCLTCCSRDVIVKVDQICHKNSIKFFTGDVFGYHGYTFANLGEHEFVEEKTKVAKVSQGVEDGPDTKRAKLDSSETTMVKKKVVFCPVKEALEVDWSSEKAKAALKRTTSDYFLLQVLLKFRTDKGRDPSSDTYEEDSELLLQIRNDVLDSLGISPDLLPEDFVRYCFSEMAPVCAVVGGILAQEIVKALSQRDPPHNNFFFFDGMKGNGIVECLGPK
Chain of SUMO E1/E2 (Q9UBT2 whole entry): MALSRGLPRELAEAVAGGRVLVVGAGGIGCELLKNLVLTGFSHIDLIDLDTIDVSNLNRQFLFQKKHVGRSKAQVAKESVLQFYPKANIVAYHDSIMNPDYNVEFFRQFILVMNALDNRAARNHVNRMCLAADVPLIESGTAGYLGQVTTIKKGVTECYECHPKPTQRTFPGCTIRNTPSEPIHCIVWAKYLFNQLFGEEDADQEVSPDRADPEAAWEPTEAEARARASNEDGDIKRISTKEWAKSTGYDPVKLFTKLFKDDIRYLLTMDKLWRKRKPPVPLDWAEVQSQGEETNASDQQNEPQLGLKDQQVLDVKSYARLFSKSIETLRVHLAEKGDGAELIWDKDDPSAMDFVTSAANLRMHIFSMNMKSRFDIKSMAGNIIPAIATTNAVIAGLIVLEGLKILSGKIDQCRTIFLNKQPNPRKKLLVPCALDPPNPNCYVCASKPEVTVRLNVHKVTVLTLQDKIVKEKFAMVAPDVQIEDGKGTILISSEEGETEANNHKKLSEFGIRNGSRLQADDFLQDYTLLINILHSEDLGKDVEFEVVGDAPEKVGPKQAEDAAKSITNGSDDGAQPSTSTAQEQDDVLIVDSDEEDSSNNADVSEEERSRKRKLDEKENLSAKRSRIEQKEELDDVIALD
Chain of SUMO E1/E2 (P63279 whole entry): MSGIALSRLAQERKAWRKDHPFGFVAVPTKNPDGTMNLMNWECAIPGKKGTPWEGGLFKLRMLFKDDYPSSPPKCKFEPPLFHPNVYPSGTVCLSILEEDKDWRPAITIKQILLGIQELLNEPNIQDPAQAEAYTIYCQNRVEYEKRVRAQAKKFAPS

[11] = target: T2, Voltage-gated N-type calcium channel alpha-1B subunit/Amyloid beta A4 precursor protein-binding family A member 1 (Homo sapiens, UniProt Q00975+Q02410); assay: disruptors of Mint-PDZ/N-type channel peptide interaction – biochemical, HTRF, set 2, SAR follow-up (AID 434980); format: functional
T2 sequence (Q00975 whole entry): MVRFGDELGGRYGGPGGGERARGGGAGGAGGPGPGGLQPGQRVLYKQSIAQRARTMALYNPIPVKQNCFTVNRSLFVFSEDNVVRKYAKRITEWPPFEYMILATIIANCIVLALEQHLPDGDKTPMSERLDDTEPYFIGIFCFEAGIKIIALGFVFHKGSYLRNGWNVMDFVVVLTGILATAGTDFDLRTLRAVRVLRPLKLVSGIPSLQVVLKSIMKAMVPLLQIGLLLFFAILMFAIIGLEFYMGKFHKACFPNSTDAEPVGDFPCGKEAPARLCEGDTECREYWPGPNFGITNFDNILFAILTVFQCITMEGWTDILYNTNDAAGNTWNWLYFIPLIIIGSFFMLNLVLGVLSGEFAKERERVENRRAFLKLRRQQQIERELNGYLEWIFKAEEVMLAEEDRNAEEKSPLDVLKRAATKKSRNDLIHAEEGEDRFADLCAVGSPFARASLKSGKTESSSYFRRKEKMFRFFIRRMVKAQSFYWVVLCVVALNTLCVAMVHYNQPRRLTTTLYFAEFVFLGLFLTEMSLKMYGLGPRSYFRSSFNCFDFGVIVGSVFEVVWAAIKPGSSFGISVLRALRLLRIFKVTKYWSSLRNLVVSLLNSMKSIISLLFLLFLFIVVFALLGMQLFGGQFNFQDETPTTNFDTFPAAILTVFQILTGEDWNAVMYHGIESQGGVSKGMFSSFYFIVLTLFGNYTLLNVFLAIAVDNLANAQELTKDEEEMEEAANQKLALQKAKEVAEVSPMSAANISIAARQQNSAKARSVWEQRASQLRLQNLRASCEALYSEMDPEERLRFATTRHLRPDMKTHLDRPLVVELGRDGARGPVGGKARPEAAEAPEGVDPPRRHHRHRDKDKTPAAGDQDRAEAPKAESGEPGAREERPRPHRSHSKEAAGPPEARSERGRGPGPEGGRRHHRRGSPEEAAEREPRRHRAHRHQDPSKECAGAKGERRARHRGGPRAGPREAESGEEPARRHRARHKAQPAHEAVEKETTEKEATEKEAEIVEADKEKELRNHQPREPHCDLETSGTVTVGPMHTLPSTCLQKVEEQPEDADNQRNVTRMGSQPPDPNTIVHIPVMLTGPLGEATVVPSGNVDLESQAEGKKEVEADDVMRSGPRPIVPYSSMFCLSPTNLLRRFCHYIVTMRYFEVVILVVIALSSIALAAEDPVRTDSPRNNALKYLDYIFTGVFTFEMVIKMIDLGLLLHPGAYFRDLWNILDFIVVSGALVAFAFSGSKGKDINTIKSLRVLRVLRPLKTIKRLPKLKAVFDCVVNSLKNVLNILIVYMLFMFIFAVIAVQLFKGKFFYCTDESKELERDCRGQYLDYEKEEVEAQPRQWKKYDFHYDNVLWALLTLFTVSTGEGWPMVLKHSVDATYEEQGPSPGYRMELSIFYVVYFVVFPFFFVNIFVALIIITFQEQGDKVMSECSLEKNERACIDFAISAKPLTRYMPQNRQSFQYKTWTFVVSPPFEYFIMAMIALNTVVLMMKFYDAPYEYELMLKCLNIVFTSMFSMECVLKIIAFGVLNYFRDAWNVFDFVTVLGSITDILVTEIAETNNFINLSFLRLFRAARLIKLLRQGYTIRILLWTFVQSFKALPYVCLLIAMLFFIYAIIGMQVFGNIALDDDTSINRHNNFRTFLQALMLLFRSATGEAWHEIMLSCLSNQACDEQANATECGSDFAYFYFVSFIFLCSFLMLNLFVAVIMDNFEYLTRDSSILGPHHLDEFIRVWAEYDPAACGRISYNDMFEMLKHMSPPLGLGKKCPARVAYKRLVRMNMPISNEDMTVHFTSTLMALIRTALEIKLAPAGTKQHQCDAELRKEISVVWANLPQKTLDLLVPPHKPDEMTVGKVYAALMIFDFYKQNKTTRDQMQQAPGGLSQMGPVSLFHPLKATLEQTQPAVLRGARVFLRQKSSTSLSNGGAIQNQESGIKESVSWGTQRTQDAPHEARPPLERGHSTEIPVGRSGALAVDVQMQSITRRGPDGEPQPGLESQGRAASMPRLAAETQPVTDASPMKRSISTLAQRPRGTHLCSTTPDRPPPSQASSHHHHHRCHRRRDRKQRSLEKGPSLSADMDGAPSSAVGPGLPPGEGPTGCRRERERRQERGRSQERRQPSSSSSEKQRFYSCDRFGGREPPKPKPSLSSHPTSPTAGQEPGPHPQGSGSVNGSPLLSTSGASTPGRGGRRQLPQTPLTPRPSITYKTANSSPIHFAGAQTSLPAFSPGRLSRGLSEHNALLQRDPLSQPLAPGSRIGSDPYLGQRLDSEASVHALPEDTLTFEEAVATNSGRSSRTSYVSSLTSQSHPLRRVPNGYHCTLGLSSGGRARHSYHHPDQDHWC
T2 sequence (Q02410 whole entry): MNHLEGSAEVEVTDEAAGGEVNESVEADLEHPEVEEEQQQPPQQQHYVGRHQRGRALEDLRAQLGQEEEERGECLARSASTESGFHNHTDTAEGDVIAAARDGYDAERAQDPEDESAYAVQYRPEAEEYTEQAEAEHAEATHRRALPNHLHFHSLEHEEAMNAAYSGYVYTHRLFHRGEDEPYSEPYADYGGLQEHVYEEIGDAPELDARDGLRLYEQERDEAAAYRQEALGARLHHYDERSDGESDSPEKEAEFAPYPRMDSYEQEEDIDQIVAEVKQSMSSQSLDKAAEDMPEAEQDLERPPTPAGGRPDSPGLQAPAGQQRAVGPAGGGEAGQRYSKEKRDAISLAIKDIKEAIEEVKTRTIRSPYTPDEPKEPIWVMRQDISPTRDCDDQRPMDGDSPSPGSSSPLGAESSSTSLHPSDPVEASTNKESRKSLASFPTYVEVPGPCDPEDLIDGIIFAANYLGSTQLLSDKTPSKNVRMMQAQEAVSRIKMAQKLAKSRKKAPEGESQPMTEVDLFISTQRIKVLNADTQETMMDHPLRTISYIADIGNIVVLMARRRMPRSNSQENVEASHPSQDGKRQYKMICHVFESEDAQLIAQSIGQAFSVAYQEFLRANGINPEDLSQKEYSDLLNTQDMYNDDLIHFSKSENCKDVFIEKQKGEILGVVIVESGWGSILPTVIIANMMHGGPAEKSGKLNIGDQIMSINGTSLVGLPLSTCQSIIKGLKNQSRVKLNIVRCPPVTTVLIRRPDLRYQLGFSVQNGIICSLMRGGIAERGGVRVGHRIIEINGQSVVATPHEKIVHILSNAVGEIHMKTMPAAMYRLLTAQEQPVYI

[12] = target: T2, Voltage-gated N-type calcium channel alpha-1B subunit/Amyloid beta A4 precursor protein-binding family A member 1; assay: disruptors of Mint-PDZ/N-type channel peptide interaction – biochemical, HTRF, SAR follow-up (AID 2489); format: functional
[13] = target: G-protein coupled receptor 35 (Homo sapiens, UniProt Q9HC97); assay: inhibition of zaprinast-stimulated GPR35 beta-arrestin translocation – imaging, U2OS, beta-arrestin-GFP, zaprinast agonist, primary screen (AID 2058); format: functional;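 also: antagonist potency meaning inhibition of agonist-induced arrestin redistribution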
[14] = target: T2, Voltage-gated N-type calcium channel alpha-1B subunit/Amyloid beta A4 precursor protein-binding family A member 1; format: protein assay
[15] = target: T2, Voltage-gated N-type calcium channel alpha-1B subunit/Amyloid beta A4 precursor protein-binding family A member 1; format: protein assay; remark: listed apart in the source
[16] = target: Induced myeloid leukemia cell differentiation protein Mcl-1 (Homo sapiens, UniProt Q07820); format: functional
[17] = target: Eukaryotic translation initiation factor 4E (Mus musculus, UniProt P63073); assay: blockers of eIF4G binding by eIF4E – biochemical, TR-FRET, dose response (AID 855); format: functional;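 also: potency for disrupting eIF4E binding to eIF4GI seen as loss of FRET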
[18] = target: 26S proteasome non-ATPase regulatory subunit 14 (Homo sapiens, UniProt O00487); assay: inhibition of proteasome subunit RPN11 – biochemical, fluorescence polarization, uHTS hits, confirmation (AID 602368); format: functional
Chain of 26S proteasome non-ATPase regulatory subunit 14 (O00487 whole entry): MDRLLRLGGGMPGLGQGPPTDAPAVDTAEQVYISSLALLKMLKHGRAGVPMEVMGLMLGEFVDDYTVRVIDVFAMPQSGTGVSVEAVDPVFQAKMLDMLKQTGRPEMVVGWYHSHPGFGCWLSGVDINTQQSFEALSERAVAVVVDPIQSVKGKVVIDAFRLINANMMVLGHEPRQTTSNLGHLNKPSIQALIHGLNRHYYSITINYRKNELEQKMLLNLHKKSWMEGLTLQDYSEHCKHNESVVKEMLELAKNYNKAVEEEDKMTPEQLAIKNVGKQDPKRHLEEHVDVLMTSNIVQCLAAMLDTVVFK

[19] = target: 72 kDa type IV collagenase (Homo sapiens, UniProt P08253); assay: Dose Response validation of uHTS RPN11 inhibitor hits using a MMP-2 Fluorescence assay.; format: functional
Prothrombin = Prothrombin (Bos taurus, UniProt P00735); assay: thrombin protease inhibitors – biochemical, fluorescence polarization, uHTS hits, dose response (AID 602369); format: functional
Streptococcus [20] = assay: Luminescence Microorganism-Based Dose Response Follow up to Identify Compounds Cytotoxic to Streptococcus. [Related pubchem assays: 1677 (Project Summary), 1915, 1914, 1902 (Retest at Dose), 1900 (Counter Screen), 1662 (Primary HTS)]; format: functional, organism-based

COc1cccc(Nc2nc3ccccc3nc2NS(=O)(=O)c2cccs2)c1
EC50 (HEK293 [1]): 3.67 µM (active)
IC50 (HEK293 [2]): > 20 µM (inactive)
IC50 (HEK293 [3]): > 20 µM (inactive)
IC50 (HEK293 [4]): 11.5 µM (inactive)
IC50 (Tumor necrosis factor): 12.3 µM (active)
IC50 [5]: 4.68 µM (active)
IC50 [6]: 6.08 µM (active)
IC50 (HEK293 [7]): > 20 µM (inactive)

O=C(Nc1ccc(-c2csc(Nc3ccccc3)n2)cc1)c1cccc(C(F)(F)F)c1
EC50 [8]: > 150 µM (not active)
EC50 (Streptokinase A): > 150 µM (not active)
EC50 (Streptococcus [9]): > 150 µM (not active)
AC50 [10]: 0.347 µM (active)

O=C(NN=Cc1ccc(F)cc1)c1cc(-c2ccco2)nc2ccccc12
IC50 (SUMO E1/E2): 5.24 µM (active)
IC50 [11]: 10.9 µM (active)
IC50 [12]: 6.45 µM (active)

N=C1/C(=C/c2ccc(-c3cccc(C(=O)O)c3)o2)C(=O)N=C2SC=C(c3ccccc3)N12
IC50 [13]: 1.1 µM (active)
IC50 [14]: 13.3 µM (active)
IC50 [15]: > 50 µM (inactive)
IC50 [16]: > 54 µM (active)
IC50 [17]: 18.1 µM (active)
IC50 [18]: 5.82 µM (active)
IC50 [19]: 6.29 µM (active)
IC50 (Prothrombin): 10.2 µM (active)

Clc1cccc(Cl)c1CSc1nnc(/C=C/c2ccccc2)o1
EC50 [8]: 28.8 µM (active)
EC50 (Streptococcus [20]): > 500 µM (not active)
EC50 (Streptokinase A): 4.01 µM (active)
EC50 (Streptococcus [9]): > 150 µM (not active)

— ChEMBL document CHEMBL1201862, “PubChem BioAssay data set” (2004)
